The results in this text go back to ChEMBL document CHEMBL1201862, “PubChem BioAssay data set” (2004).

For orientation: IC50 means the concentration that gives 50% inhibition. By AC50 is commonly meant the midpoint of the concentration-response curve, whichever way the signal moves. As a reminder, the CC50 is the concentration at which the toxic effect on the cells reaches its halfway point. One may read the EC50 as the concentration needed to bring the measured effect to its halfway point. Read a high EC50 as weaker potency.

SMILES strings stand for the structures. “And” between values parts separate entries of the source, which are not always exact repeats. Identical values can stand only once. The source made the active and inactive calls.

Test [1] deals with T1, Mannose-6-phosphate isomerase (Homo sapiens, UniProt P34949).
T1 sequence (P34949 whole entry): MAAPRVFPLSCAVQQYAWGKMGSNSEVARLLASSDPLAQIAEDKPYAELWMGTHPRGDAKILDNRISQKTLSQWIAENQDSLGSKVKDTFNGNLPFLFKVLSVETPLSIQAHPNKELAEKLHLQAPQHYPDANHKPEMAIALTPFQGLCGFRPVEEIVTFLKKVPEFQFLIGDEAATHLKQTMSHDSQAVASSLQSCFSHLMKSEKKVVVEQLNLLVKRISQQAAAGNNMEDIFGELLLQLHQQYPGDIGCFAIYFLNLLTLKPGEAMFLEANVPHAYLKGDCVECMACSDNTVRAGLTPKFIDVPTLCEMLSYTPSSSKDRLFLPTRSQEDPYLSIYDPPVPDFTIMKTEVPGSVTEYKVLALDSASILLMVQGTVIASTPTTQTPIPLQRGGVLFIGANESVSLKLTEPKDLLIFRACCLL
Nature of the test: MPI enzyme activity inhibition – biochemical, fluorescence intensity, coupled assay, primary screen (AID 1209).

In test [2] the target is T1, Mannose-6-phosphate isomerase. Put plainly: MPI inhibition at elevated mannose 6-phosphate – biochemical, fluorescence intensity, high mannose 6-phosphate, primary screen (AID 1220).
Test [3] deals with T2, Sentrin-specific protease 8 (Homo sapiens, UniProt Q96LD8).
T2 sequence (Q96LD8 whole entry): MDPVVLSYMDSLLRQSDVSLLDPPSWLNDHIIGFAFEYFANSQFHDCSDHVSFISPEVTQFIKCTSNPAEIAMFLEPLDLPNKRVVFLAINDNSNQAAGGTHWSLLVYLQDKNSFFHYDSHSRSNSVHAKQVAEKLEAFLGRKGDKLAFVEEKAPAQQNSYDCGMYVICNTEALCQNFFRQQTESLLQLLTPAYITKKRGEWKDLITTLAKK
Put plainly: inhibition of human SENP8 cleavage activity – biochemical, luminescence, SAR follow-up (AID 504501). The test is classed as functional.

The target of test [4] is T3, Caspase-3 (Homo sapiens, UniProt P42574).
T3 sequence (P42574 whole entry): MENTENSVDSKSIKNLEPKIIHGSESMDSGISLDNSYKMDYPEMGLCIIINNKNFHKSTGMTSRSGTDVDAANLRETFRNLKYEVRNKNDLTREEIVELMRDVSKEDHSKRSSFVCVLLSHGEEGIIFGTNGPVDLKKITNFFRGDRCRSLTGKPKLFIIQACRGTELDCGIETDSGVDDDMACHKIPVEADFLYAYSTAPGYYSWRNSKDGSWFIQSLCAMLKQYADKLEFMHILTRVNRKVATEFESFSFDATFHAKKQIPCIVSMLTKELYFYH
Nature of the test: SAR Analysis of small molecule inhibitors of Sentrin-specific proteases (SENPs) using a Caspase-3 Selectivity assay. [Related pubchem assays (depositor defined):AID2540, AID2599, AID434973, AID489001]. The test is classed as functional.

Test [5] has as its target T4, Sentrin-specific protease 6 (Homo sapiens, UniProt Q9GZR1).
T4 sequence (Q9GZR1 whole entry): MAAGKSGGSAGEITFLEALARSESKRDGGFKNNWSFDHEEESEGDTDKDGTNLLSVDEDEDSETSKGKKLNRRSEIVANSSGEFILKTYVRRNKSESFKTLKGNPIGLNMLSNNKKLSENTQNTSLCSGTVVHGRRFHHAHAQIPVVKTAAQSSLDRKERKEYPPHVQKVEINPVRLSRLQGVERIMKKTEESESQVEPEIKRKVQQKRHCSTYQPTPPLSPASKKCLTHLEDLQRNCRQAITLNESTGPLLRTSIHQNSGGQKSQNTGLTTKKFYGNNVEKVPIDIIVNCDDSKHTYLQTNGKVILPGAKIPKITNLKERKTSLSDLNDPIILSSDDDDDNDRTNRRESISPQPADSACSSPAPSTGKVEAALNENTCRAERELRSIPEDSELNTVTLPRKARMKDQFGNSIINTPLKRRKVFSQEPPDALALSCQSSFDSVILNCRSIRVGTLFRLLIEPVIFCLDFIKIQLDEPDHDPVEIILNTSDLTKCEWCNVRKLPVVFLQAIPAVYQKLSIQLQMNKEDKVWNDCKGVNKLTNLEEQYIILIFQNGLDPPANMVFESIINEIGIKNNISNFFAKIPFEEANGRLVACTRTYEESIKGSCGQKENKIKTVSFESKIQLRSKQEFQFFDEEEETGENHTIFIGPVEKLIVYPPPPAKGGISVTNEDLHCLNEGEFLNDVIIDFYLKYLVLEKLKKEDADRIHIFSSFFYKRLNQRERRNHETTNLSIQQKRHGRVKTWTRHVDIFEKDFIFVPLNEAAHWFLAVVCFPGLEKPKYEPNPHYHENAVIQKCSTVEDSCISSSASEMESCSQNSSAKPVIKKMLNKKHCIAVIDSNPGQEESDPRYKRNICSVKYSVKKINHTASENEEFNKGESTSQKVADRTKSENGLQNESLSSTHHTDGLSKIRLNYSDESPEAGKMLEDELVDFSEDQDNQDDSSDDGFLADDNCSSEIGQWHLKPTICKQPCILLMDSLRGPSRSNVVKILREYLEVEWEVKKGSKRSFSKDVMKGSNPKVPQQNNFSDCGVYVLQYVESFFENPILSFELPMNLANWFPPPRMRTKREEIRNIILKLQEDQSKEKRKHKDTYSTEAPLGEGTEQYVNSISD
Nature of the test: SAR Analysis of small molecule inhibitors of Sentrin-specific protease 6 (SENP6) using a Luminescent assay. [Related pubchem assays (depositor defined):AID2582, AID2599]. The test is classed as functional.

Test [6] deals with T5, Sentrin-specific protease 7 (Homo sapiens, UniProt Q9BQF6).
T5 sequence (Q9BQF6 whole entry): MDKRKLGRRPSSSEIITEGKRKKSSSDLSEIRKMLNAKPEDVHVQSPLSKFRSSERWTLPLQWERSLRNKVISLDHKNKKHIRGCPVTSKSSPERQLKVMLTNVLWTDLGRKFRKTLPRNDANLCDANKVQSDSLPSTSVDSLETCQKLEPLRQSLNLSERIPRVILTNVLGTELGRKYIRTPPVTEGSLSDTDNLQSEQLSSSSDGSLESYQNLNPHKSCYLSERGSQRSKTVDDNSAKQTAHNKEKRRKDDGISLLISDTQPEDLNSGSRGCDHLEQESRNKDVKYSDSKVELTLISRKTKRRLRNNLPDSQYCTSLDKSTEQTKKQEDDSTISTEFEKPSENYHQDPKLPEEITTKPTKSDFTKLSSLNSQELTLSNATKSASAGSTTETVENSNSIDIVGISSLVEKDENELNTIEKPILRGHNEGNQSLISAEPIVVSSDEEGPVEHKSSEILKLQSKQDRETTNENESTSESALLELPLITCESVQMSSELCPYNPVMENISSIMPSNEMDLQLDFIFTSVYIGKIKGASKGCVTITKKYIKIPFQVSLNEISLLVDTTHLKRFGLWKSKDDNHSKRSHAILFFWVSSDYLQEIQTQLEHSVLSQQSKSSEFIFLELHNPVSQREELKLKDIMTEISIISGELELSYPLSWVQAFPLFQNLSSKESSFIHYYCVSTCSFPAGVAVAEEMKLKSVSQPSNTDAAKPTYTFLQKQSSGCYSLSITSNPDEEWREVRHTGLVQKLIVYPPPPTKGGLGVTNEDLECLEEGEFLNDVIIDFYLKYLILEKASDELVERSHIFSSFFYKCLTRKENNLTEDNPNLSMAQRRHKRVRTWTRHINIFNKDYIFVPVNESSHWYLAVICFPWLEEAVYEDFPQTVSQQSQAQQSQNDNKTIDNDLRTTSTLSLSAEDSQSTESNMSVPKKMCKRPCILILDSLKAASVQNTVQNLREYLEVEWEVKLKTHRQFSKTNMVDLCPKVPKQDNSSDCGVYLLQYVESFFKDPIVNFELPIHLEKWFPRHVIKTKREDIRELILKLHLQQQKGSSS
Put plainly: inhibition of human SENP7 cleavage activity – biochemical, luminescence, SAR follow-up (AID 504497). The test is classed as functional.

In test [7] the target is Cytochrome P450 3A4 (Homo sapiens, UniProt P08684). The conditions noted are these: Potency.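 Also: confirmatory qHTS run detecting inhibitors and substrates of CYP3A4.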
Sequence of Cytochrome P450 3A4 (P08684 whole entry): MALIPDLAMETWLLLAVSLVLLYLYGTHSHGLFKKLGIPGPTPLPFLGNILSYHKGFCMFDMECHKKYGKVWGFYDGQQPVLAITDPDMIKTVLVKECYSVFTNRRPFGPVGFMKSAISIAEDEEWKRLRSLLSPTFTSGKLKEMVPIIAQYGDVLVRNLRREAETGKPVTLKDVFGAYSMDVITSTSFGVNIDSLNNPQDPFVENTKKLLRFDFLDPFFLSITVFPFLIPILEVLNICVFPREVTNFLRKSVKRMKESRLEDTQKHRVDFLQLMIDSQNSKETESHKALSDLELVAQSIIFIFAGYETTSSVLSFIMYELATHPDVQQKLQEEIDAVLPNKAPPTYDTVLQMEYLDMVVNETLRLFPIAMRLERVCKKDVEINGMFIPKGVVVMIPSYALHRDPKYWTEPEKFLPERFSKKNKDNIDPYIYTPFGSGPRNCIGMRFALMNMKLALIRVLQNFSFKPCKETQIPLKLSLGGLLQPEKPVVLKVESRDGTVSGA
The target in test [8] is Cytochrome P450 2C9 (Homo sapiens, UniProt P11712). The conditions noted are these: Potency.
Sequence of Cytochrome P450 2C9 (P11712 whole entry): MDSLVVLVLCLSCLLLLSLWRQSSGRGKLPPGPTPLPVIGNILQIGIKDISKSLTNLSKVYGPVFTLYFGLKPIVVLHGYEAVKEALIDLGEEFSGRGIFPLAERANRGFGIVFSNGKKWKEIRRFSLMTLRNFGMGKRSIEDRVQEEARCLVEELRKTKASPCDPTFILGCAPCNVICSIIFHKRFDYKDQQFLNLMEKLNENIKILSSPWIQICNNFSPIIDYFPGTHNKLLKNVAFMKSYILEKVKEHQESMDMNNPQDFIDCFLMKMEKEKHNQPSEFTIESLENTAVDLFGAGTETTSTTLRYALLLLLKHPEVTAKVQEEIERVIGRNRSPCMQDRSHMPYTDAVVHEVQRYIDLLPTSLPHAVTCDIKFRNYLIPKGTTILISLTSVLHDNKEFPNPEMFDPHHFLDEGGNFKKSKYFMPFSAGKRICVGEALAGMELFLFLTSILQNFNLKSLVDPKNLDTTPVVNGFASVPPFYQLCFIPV
Test [9] deals with Glyceraldehyde-3-phosphate dehydrogenase (Homo sapiens, UniProt P04406).
Sequence of Glyceraldehyde-3-phosphate dehydrogenase (P04406 whole entry): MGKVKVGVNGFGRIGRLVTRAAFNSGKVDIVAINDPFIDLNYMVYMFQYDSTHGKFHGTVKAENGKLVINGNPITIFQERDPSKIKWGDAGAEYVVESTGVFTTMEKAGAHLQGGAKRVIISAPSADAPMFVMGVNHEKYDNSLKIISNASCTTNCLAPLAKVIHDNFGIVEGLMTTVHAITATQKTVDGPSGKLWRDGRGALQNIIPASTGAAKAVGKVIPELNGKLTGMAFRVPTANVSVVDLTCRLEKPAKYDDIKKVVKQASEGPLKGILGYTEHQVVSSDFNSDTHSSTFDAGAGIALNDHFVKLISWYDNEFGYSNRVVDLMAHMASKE
Test [10] deals with T6, Alkaline phosphatase, tissue-nonspecific isozyme (Homo sapiens, UniProt P05186).
T6 sequence (P05186 whole entry): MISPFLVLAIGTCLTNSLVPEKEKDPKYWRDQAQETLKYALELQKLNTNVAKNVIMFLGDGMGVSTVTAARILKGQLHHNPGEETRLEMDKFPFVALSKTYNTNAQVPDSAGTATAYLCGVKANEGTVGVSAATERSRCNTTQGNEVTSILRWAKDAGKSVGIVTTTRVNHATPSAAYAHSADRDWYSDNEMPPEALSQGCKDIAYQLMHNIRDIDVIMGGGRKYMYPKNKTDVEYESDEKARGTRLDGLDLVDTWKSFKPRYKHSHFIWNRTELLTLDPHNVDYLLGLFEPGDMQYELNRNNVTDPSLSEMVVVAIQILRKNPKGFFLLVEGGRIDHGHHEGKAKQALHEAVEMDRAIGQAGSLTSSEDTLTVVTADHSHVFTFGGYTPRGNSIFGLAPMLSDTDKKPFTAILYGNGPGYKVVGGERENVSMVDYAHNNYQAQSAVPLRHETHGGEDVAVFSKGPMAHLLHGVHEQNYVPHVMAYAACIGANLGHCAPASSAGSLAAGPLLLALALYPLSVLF
Nature of the test: potency against alkaline phosphatase TNAP – biochemical, luminescent, dose response, SAR follow-up (AID 1056).

Test [11] is described as follows: viability of uninfected HEp-2 cells – cell-based, HTS, cytotoxicity control for RSV inhibitor project, dose response (AID 2410). The test is classed as functional. The following applies: human respiratory syncytial virus.
Test [12] can be described thus: cells.
In test [13] the target is T7, Estrogen receptor (Homo sapiens, UniProt P03372).
T7 sequence (P03372 whole entry): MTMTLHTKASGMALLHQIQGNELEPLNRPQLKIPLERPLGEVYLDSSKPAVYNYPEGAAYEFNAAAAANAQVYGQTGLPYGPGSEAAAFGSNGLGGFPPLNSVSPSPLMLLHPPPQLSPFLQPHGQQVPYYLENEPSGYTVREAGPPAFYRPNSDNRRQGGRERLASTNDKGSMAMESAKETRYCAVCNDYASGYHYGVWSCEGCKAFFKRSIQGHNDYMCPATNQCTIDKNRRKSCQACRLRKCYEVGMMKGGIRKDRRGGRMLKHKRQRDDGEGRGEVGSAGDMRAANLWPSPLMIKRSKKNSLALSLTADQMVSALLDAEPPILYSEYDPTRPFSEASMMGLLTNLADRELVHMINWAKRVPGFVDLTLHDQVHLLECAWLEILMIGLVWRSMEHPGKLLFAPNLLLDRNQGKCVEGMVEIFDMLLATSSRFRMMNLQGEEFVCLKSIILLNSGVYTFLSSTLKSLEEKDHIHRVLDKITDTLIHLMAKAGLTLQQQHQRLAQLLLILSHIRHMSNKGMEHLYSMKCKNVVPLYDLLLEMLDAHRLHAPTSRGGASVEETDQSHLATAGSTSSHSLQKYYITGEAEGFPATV

The target in test [14] is Peroxisome proliferator-activated receptor gamma/Nuclear receptor coactivator 2 (Homo sapiens, UniProt P37231). The test is classed as functional.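 Also: agonist potency for raising coactivator recruitment to the receptor.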
For test [15], the target named is Peroxisome proliferator-activated receptor gamma/Nuclear receptor coactivator 1 (Homo sapiens, UniProt P37231). The test is classed as functional.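 Also: agonist potency as compounds enhance coactivator SRC-1 recruitment to PPARgamma.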
For test [16], the target named is Peroxisome proliferator-activated receptor gamma/Nuclear receptor coactivator 3 (Homo sapiens, UniProt P37231). The test is classed as functional.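 Also: agonist potency for raising coactivator recruitment to the receptor.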
Sequence of Peroxisome proliferator-activated receptor gamma/Nuclear receptor coactivator 3 (P37231 whole entry): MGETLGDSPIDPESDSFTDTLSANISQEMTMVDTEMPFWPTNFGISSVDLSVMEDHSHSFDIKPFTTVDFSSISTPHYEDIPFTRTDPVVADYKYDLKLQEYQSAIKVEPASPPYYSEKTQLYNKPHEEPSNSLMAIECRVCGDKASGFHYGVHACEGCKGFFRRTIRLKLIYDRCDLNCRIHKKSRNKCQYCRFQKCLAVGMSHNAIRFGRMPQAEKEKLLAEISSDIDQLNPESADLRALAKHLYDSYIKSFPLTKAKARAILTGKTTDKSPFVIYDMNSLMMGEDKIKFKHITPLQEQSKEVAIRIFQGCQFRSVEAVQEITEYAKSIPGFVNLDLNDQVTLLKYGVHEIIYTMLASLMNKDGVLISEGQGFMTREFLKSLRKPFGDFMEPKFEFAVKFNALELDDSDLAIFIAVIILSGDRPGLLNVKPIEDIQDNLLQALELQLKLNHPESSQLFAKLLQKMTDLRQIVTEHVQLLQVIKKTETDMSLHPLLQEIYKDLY
Sequence of Peroxisome proliferator-activated receptor gamma/Nuclear receptor coactivator 3 (Q9Y6Q9 whole entry, further chain): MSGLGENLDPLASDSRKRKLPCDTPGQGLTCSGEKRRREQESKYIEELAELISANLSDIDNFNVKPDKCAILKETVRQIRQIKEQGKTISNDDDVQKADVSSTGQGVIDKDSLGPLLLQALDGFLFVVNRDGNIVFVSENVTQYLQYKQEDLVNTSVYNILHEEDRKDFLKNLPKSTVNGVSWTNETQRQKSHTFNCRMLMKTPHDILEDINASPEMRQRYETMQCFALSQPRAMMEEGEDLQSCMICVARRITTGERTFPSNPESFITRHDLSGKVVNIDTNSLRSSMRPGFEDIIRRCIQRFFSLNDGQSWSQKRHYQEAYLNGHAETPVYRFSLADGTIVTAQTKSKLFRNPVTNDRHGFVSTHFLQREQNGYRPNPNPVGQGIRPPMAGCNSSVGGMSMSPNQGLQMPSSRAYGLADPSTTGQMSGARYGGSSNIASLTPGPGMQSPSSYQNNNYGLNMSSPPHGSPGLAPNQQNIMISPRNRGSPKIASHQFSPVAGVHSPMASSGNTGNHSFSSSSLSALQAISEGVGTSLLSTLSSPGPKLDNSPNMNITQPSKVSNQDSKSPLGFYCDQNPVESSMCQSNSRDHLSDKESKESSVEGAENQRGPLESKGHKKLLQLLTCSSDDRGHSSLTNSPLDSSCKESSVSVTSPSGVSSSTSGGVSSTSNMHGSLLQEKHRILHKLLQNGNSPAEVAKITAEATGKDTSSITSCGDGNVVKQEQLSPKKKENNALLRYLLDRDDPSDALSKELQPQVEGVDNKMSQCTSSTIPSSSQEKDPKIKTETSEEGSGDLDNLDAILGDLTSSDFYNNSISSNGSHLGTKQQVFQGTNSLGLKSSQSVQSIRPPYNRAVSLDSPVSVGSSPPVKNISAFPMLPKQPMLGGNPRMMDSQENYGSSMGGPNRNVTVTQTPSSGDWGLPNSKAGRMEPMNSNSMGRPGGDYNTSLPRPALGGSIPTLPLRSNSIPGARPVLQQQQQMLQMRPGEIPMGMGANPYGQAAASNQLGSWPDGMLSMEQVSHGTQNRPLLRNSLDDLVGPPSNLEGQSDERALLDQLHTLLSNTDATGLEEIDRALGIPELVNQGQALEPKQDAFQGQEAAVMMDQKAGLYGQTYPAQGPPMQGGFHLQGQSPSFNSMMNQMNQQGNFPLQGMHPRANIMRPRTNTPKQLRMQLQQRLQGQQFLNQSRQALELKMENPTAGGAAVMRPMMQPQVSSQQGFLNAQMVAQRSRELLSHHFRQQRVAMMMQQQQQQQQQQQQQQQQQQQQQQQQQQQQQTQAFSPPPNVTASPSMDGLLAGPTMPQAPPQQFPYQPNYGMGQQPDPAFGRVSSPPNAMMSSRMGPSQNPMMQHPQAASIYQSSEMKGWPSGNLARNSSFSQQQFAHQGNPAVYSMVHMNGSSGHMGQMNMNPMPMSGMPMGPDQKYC
Test [17] has as its target T8, Estrogen receptor beta (Homo sapiens, UniProt Q92731).
The target of test [18] is T8, Estrogen receptor beta. Put plainly: blockers of SRC-3 recruitment to ERβ – biochemical, ELISA, streptavidin-HRP readout, orthogonal assay, confirmation (AID 1060). Background: In an ELISA, binding on a coated surface is turned into a signal by an enzyme label.

T8 sequence (Q92731 whole entry): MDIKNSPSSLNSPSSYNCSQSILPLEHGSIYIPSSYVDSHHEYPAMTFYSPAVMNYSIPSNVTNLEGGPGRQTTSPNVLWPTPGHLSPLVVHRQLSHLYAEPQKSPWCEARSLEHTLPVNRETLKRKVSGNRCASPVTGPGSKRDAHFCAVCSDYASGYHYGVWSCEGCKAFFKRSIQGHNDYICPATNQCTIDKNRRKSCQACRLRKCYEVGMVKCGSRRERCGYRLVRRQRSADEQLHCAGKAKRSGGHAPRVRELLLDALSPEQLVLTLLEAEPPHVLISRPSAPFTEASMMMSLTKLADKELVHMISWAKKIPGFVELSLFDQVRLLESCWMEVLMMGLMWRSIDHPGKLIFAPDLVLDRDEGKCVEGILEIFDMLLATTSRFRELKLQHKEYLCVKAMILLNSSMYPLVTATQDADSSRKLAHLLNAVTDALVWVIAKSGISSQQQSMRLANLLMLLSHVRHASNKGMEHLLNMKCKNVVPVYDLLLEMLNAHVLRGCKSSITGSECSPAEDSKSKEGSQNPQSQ

As for `Oc1cccc(/C=N/Nc2cc(N3CCOCC3)nc(N3CCOCC3)n2)c1`, the IC50 was > 50 µM (not active) in test [1]; > 50 µM (not active) in test [2]; > 99 µM (inactive) in [3]; > 99 µM (inactive) in test [4]; 89.1 µM (active) in test [5]; 80.5 µM (active) in test [6].

Turning to `COc1ccc(OC2C(O)COC2/C=C/c2ccccc2)cc1` (stereo unspecified), the half-maximal activity concentration (AC50) in test [7] is 3.16 µM (inconclusive) and 3.98 µM (inconclusive); in test [8], 3.16 µM (inconclusive) and 2.51 µM (inconclusive).

As to `COC(=O)c1ccc(OC)c(S(=O)(=O)Nc2ccc3ccccc3c2)c1`, the IC50 in test [9] was > 10 µM (inconclusive); in [10] it was > 10 µM (inactive).

Consider `COc1ccccc1/C=C/C(=O)N1CCc2cc(OC)c(OC)cc2C1C` (stereo unspecified), for which the cytotoxic concentration (CC50) in test [11] is > 50 µM (active). Besides, the 50% inhibitory concentration (IC50) in test [12] was 17.8 µM (active).

Consider `Cc1ccc(NC(=O)C2CCCN2S(=O)(=O)c2cccc3cccnc23)c(C)c1` (stereo unspecified), for which the CC50 in test [11] is 42.9 µM (active). For the same molecule, the concentration for half-maximal inhibition (IC50) in test [12] is 1.86 µM (active).

On to `Cc1ccc(NS(=O)(=O)c2cccc(C(=O)OCC(=O)NCc3ccco3)c2)cc1`, for which the IC50 in [13] is on record as 30.6 µM (not active).

In the case of `c1csc(Cc2nn3c(-c4n[nH]c5c4CCC5)nnc3s2)c1`, the EC50 in test [14], in test [15] and in test [16] was > 79.4 µM (not active) throughout. For the same molecule, the IC50 in test [17] and in [18] was > 50 µM (not active) throughout.

With `O=C1C(Cl)=C(N2CCN(C/C=C/c3ccccc3)CC2)C(=O)N1c1ccc(C(F)(F)F)cc1`, the concentration for half-maximal inhibition (IC50) in [9] is > 50 µM (inconclusive).
